According to PubChem BioAssay (NCI):
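Where inhibition never reached the appropriate level, the endpoint shown equals the highest concentration tested. Otherwise, values were interpolated linearly from a five-concentration, 48-hour dose response in 96-well plates. TGI: concentration producing complete growth inhibition.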

What was measured:
Test in all cases: NCI tumour cell line growth inhibition, 48 h
COLO 205 colon = test system: COLO 205 colon
IGROV1 ovarian = test system: IGROV1 ovarian
SK-OV-3 ovarian = test system: SK-OV-3 ovarian
MDA-N = test system: MDA-N
M14 melanoma = test system: M14 melanoma
SK-MEL-2 melanoma = test system: SK-MEL-2 melanoma
MDA-MB-435 = test system: MDA-MB-435
BT-549 breast = test system: BT-549 breast
OVCAR-8 ovarian = test system: OVCAR-8 ovarian
SNB-75 CNS = test system: SNB-75 CNS
A498 renal = test system: A498 renal
HT29 colon = test system: HT29 colon
786-0 renal = test system: 786-0 renal
U251 CNS = test system: U251 CNS
RPMI-8226 leukemia = test system: RPMI-8226 leukemia
UO-31 renal = test system: UO-31 renal
SK-MEL-5 melanoma = test system: SK-MEL-5 melanoma

Compound	TGI (COLO 205 colon) [µM]	TGI (IGROV1 ovarian) [µM]	TGI (SK-OV-3 ovarian) [µM]	TGI (MDA-N) [µM]	TGI (M14 melanoma) [µM]	TGI (SK-MEL-2 melanoma) [µM]	TGI (MDA-MB-435) [µM]	TGI (BT-549 breast) [µM]	TGI (OVCAR-8 ovarian) [µM]	TGI (SNB-75 CNS) [µM]	TGI (A498 renal) [µM]	TGI (HT29 colon) [µM]	TGI (786-0 renal) [µM]	TGI (U251 CNS) [µM]	TGI (RPMI-8226 leukemia) [µM]	TGI (UO-31 renal) [µM]	TGI (SK-MEL-5 melanoma) [µM]
CC(=O)O[C@H]1CC[C@@]2(C)C(=CC[C@H]3[C@@H]4C[C@H](N5CCOCC5)[C@H](OC(C)=O)[C@@]4(C)CC[C@@H]32)C1	> 100	> 100	> 100	> 100	> 100	> 100	> 100	> 100	> 100	> 100	> 100	> 100	> 100	> 100	> 100	> 100	> 100
CCOC(=O)NC(Nc1ccc([N+](=O)[O-])cc1)(C(F)(F)F)C(F)(F)F	> 100	> 100	> 100	54.7	> 100	> 100	49.1	> 100	> 100	> 100	> 100	> 100	> 100	> 100	> 100	> 100	> 100
CC(=O)[C@@]1(O)CC[C@H]2[C@@H]3C[C@H](C)C4=CC(=O)C=C[C@]4(C)[C@@]3(F)[C@@H](O)C[C@@]21C	> 100	> 100	> 100	> 100	> 100	> 100	> 100	> 100	> 100	> 91.9	> 100	> 100	> 100	> 100	> 100	> 100	> 100
CCC/C(Cl)=N\OC(=O)Nc1ccc(OC(F)(F)F)cc1	3.54	22	34.2	28.2	18.5	32.9	49.9	56.6	36.3	35.8	54.8	42.4	26.1	> 58.1	4.43	23.3	21.7
